Measurements reported in patent US20090299034A1, “Collagen-related peptides” (priority 2007, published 2009).

What was measured:
washed platelets [1] = test: Inhibition of platelet aggregation induced by collagen or CRP trimer SEQ ID 145; format: cell-based, human; conditions: GPIIb/IIIa antagonist at 10, 100 and 1000 nM, 5 min pre-incubation
washed platelets [2] = test: Human platelet aggregation assay; format: cell-based; conditions: for EC50 ± SEM platelet aggregation: Table 3
Method: Human platelet-rich plasma (PRP) concentrate from healthy volunteers was purchased from Biological Specialties, Inc. (Colmar, Pa.). […] The PRP was centrifuged at 730 g for 15 min. The resulting platelet pellet was washed twice in CGS buffer (13 mM sodium citrate, 30 mM glucose, 120 mM NaCl, pH 6.5) containing 1 U/mL apyrase (grade V, Sigma-Aldrich) and resuspended in Tyrode's buffer (140 mM NaCl, 2.7 mM KCl, 12 mM NaHCO3, 0.76 mM Na2HPO4, 5.5 mM dextrose, 5.0 mM Hepes, 0.2% BSA, pH 7.4). The “washed” platelets were diluted to 3×10^8 platelets/mL and kept >45 min at 37° C. before use.
For the assay, 105 μL of washed platelets, 2 mM CaCl2 and […] of fibrinogen were added to a 96-well microtiter plate. Platelet aggregation was initiated by the addition of serial concentrations of native collagen fibrils (equine type I; 92% identity with human collagen sequence; Chrono-log Corp., Havertown, Pa.) or test peptides. Buffer was added to one set of control wells. The assay plate was stirred constantly and intermittently placed in a microplate reader (Softmax, Molecular Devices, Menlo Park, Calif.) to read optical density (650 nm) at 0 and 5 min after the addition of the compound solutions. Aggregation was calculated as the decrease in optical density between the time-0 and 5-min measurements and expressed as percent of aggregation.
Peptides were dissolved in PBS (pH 7) or water (final pH 5) to a concentration of 2 mg/mL. Some samples were heated in a water bath (70° C.) for 10 min, filtered through a 0.45-μm filter and incubated for 24 h or 7 days at 4° C. […] (H+F) and re-annealed at 4° C.

## O=C(O)C[C@H](NC(=O)[C@@H]1CCCN(C(=O)CCC2CCNCC2)C1)c1cccnc1 [elarofiban]
Washed platelets [1]
  inhibition of platelet aggregation induced by CRP trimer having SEQ ID 145: dose-dependent inhibition
  inhibition of platelet aggregation induced by collagen: dose-dependent inhibition

## (Pro-Xaa-Gly)10 [SEQ ID 154]
Washed platelets [2]; Example 4
  induction of platelet aggregation: failed to aggregate platelets
Washed platelets [2]; Example 6, FIG. 1
  stimulation of platelet aggregation: not effective
Washed platelets [2]; PBS, H + F, pH 7, incubation 24 h
  EC50 ± SEM platelet aggregation: Not Active

## Collagen
Washed platelets [2]; Example 6, FIG. 1, Table 4
  EC50 values (±SEM) platelet aggregation: 0.56 ± 0.09 µg/mL
Washed platelets [2]; native collagen fibrils, no peptide preparation
  EC50 ± SEM platelet aggregation: 0.25 µg/mL
